In US7407775B2, “Method for identifying Listeria monocytogenes and culture medium” (Biomerieux S.A., priority 2000, dated 2008):

Key:
Assay type in all cases: cell-based
[1] = test system: Listeria monocytogenes ATCC 19115; assay: Experiment 3: detecting an esterase activity in liquid medium (API-type strips); set-up: key: —: the symbol “-” corresponds to the absence of color or intensity; 0 corresponds to no activity; 0.1 corresponds to a trace of color; 0.5 corresponds to very pale coloration; 1 corresponds to clear but low-intensity coloration; 1.5 corresponds to a degree of coloration intermediate between scores 1 and 2; 2 corresponds to clear coloration of moderate intensity; 2.5 corresponds to a degree of coloration intermediate between scores 2 and 3; 3 corresponds to intense coloration; 3.5 corresponds to a degree of coloration intermediate between scores 3 and 4; 4 corresponds to very intense coloration; conditions: 37° C.
Experimental: (§1) In Table 1 above, as in the following Tables, C represents the color of the colonies after incubation, I represents the intensity of the color, and the symbol “-” corresponds to the absence of color or intensity; finally, IT defines the incubation time. It should be noted that the intensity of the color is scored on an arbitrary scale but one which is consistent for all the biological specimens and media tested. This scale is valid for this experiment as well as all those that follow. It can be defined in the following way: • 0 corresponds to no activity, • 0.1 corresponds to a trace of color, • 0.5 corresponds to very pale coloration, • 1 corresponds to clear but low-intensity coloration, • 1.5 corresponds to a degree of coloration intermediate between scores 1 and 2, • 2 corresponds to clear coloration of moderate intensity, • 2.5 corresponds to a degree of coloration intermediate between scores 2 and 3, • 3 corresponds to intense coloration, • 3.5 corresponds to a degree of coloration intermediate between scores 3 and 4, • 4 corresponds to very intense coloration.
(§2) These substrates were lyophilized in the wells of API-type strips (Registered Trademark). Before use, the substrates contained in the wells were resuspended in an agar-free Columbia-type inoculation medium. These wells were then inoculated with a suspension (density=2 McFarland) of microorganisms taken from either the Applicant's own collection or the ATCC. The strips were incubated for 8 hours at 37° C. The colonies which grew were examined by eye after 4, 6 and 8 hours of incubation.
(§3) The intensity of the color of the colonies was recorded.

[2] = test system: Listeria innocua 166; assay: as above; set-up: key: —: the symbol “-” corresponds to the absence of color or intensity; 0 corresponds to no activity; 0.1 corresponds to a trace of color; 0.5 corresponds to very pale coloration; 1 corresponds to clear but low-intensity coloration; 1.5 corresponds to a degree of coloration intermediate between scores 1 and 2; 2 corresponds to clear coloration of moderate intensity; 2.5 corresponds to a degree of coloration intermediate between scores 2 and 3; 3 corresponds to intense coloration; 3.5 corresponds to a degree of coloration intermediate between scores 3 and 4; 4 corresponds to very intense coloration; conditions: 37° C.
Experimental: as §1, §2, §3

[3] = test system: Listeria grayi ATCC 19120; assay: as above; set-up: key: —: the symbol “-” corresponds to the absence of color or intensity; 0 corresponds to no activity; 0.1 corresponds to a trace of color; 0.5 corresponds to very pale coloration; 1 corresponds to clear but low-intensity coloration; 1.5 corresponds to a degree of coloration intermediate between scores 1 and 2; 2 corresponds to clear coloration of moderate intensity; 2.5 corresponds to a degree of coloration intermediate between scores 2 and 3; 3 corresponds to intense coloration; 3.5 corresponds to a degree of coloration intermediate between scores 3 and 4; 4 corresponds to very intense coloration; conditions: 37° C.
Experimental: as §1, §2, §3

[4] = test system: Listeria welshimeri 023; assay: as above; set-up: key: —: the symbol “-” corresponds to the absence of color or intensity; 0 corresponds to no activity; 0.1 corresponds to a trace of color; 0.5 corresponds to very pale coloration; 1 corresponds to clear but low-intensity coloration; 1.5 corresponds to a degree of coloration intermediate between scores 1 and 2; 2 corresponds to clear coloration of moderate intensity; 2.5 corresponds to a degree of coloration intermediate between scores 2 and 3; 3 corresponds to intense coloration; 3.5 corresponds to a degree of coloration intermediate between scores 3 and 4; 4 corresponds to very intense coloration; conditions: 37° C.
Experimental: as §1, §2, §3

[5] = test system: Listeria seeligeri 011; assay: as above; set-up: key: —: the symbol “-” corresponds to the absence of color or intensity; 0 corresponds to no activity; 0.1 corresponds to a trace of color; 0.5 corresponds to very pale coloration; 1 corresponds to clear but low-intensity coloration; 1.5 corresponds to a degree of coloration intermediate between scores 1 and 2; 2 corresponds to clear coloration of moderate intensity; 2.5 corresponds to a degree of coloration intermediate between scores 2 and 3; 3 corresponds to intense coloration; 3.5 corresponds to a degree of coloration intermediate between scores 3 and 4; 4 corresponds to very intense coloration; conditions: 37° C.
Experimental: as §1, §2, §3

[6] = test system: Listeria monocytogenes 092; assay: Experiment 2: octanoate esterase substrates with different Indoxyl-based chromogenic markers; set-up: key to I (intensity of the color): —: the symbol “-” corresponds to the absence of color or intensity; 0 corresponds to no activity; 0.1 corresponds to a trace of color; 0.5 corresponds to very pale coloration; 1 corresponds to clear but low-intensity coloration; 1.5 corresponds to a degree of coloration intermediate between scores 1 and 2; 2 corresponds to clear coloration of moderate intensity; 2.5 corresponds to a degree of coloration intermediate between scores 2 and 3; 3 corresponds to intense coloration; 3.5 corresponds to a degree of coloration intermediate between scores 3 and 4; 4 corresponds to very intense coloration; conditions: 37° C., substrate 250 mg/l
Experimental: as §1
A stock solution of each substrate at a concentration of 40 g/l was made up in a mixture of 40% Dimethylsulfoxide and 60% Tween 20. An appropriate volume was added to four Columbia-type media while cooling to give a final substrate concentration of 250 mg/l. These dishes were divided into three areas and then each area was inoculated with a suspension (density=0.5 McFarland) of microorganisms taken from either the Applicant's own collection or the ATCC. The dishes were incubated for 48 hours at 37° C. The colonies which grew were examined by eye after 24 and 48 hours of incubation. Both the color and the intensity of the color of the colonies were recorded.

| SMILES | I (intensity of the color) ([1]; IT 4 h) | I (intensity of the color) ([1]; IT 6 h) | I (intensity of the color) ([1]; IT 8 h) | I (intensity of the color) ([2]; IT 4 h) | I (intensity of the color) ([2]; IT 6 h) | I (intensity of the color) ([2]; IT 8 h) | I (intensity of the color) ([3]; IT 4 h) | I (intensity of the color) ([3]; IT 6 h) | I (intensity of the color) ([3]; IT 8 h) | I (intensity of the color) ([4]; IT 4 h) | I (intensity of the color) ([4]; IT 6 h) | I (intensity of the color) ([4]; IT 8 h) | I (intensity of the color) ([5]; IT 4 h) | I (intensity of the color) ([5]; IT 6 h) | I (intensity of the color) ([5]; IT 8 h) | C (color of the colonies) ([6]; IT 24 h) | I (intensity of the color) ([6]; IT 24 h) | C (color of the colonies) ([6]; IT 48 h) | I (intensity of the color) ([6]; IT 48 h) |
| --- | --- | --- | --- | --- | --- | --- | --- | --- | --- | --- | --- | --- | --- | --- | --- | --- | --- | --- | --- |
| CCCCCCCC(=O)Oc1c[nH]c2ccc(Br)c(Cl)c12 [X-C8, 5-Bromo-4-chloro-3-indolyl octanoate] | — | 1 | 1.5 | — | — | — | — | — | — | — | — | — | — | 0.5 | 0.5 | turquoise | 3 | turquoise | 3.5 |
| CCCCCCCC(=O)Oc1c[nH]c2cc(Cl)ccc12 [Pink-C8, 6-Chloro-3-indolyl octanoate] | — | — | — | — | — | — | — | — | — | — | — | — | — | — | — | pink | 1.5 | pink | 2 |
| CCCCCCCC(=O)Oc1c[nH]c2ccc(Br)cc12 [Blue-C8, 5-Bromo-3-indolyl octanoate] |  |  |  |  |  |  |  |  |  |  |  |  |  |  |  | gray | 1.5 | gray | 2.5 |
| CCCCCCCC(=O)Oc1c[nH]c2cc(Cl)c(Br)cc12 [Magenta-C8, 5-Bromo-6-chloro-3-indolyl octanoate] | — | — | 0.5 | — | — | — | — | — | — | — | — | — | — | — | — | purple | 3 | purple | 3 |
